# Assay results: article PMC5218480 (PLoS ONE, 2017)
# Test system: MV-4-11 cells
# Experiment: Gene expression microarray analysis (Affymetrix PrimeView) and GSEA
# Format: cell-based, human
# Set-up: RFU PODN (11730768_x_at) / Fold change /veh PODN (11730768_x_at) / RFU LINC00158 (11744669_a_at) / Fold change /veh LINC00158 (11744669_a_at) / RFU DUSP10 (11751237_a_at) / Fold change /veh DUSP10 (11751237_a_at) / RFU ID3 (11757404_x_at) / Fold change /veh ID3 (11757404_x_at) / RFU PLEKHG5 (11737974_s_at) / Fold change /veh PLEKHG5 (11737974_s_at) / RFU LRRC4B (11730491_at) / Fold change /veh LRRC4B (11730491_at) / RFU GIMAP4 (11747438_a_at) / Fold change /veh GIMAP4 (11747438_a_at) / RFU KRT8 (11758183_x_at) / Fold change /veh KRT8 (11758183_x_at) / RFU CNN1 (11734310_a_at) / Fold change /veh CNN1 (11734310_a_at) / RFU VPS37D (11726825_at) / Fold change /veh VPS37D (11726825_at) / RFU C10orf10 (11716522_x_at) / Fold change /veh C10orf10 (11716522_x_at) / RFU KIR2DL2 /// KIR2DL4 /// KIR2DL5A /// KIR2DL5B /// KIR2DS1 /// KIR2DS2 /// KIR2DS3 /// KIR2DS4 /// KIR3DL3 /// KIR3DL3 /// KIR3DS1 (11738374_at) / Fold change /veh KIR2DL2 /// KIR2DL4 /// KIR2DL5A /// KIR2DL5B /// KIR2DS1 /// KIR2DS2 /// KIR2DS3 /// KIR2DS4 /// KIR3DL3 /// KIR3DL3 /// KIR3DS1 (11738374_at) / RFU C1QL1 (11718748_at) / Fold change /veh C1QL1 (11718748_at) / RFU TMPRSS4 (11747572_a_at) / Fold change /veh TMPRSS4 (11747572_a_at) / RFU HAMP (11756126_x_at) / Fold change /veh HAMP (11756126_x_at) / RFU RNFT2 (11725882_a_at) / Fold change /veh RNFT2 (11725882_a_at) / RFU NR4A2 (11747474_a_at) / Fold change /veh NR4A2 (11747474_a_at) / RFU ABCC12 (11746883_a_at) / Fold change /veh ABCC12 (11746883_a_at) / RFU TMEM136 (11760407_x_at) / Fold change /veh TMEM136 (11760407_x_at) / RFU CLDN22 /// WWC2 (11732394_at) / Fold change /veh CLDN22 /// WWC2 (11732394_at) / RFU HLA-DPB1 (11760878_x_at) / Fold change /veh HLA-DPB1 (11760878_x_at) / RFU SPINT1 (11716480_a_at) / Fold change /veh SPINT1 (11716480_a_at) / RFU GAP43 (11754022_s_at) / Fold change /veh GAP43 (11754022_s_at) / RFU A4GNT (11735810_at) / Fold change /veh A4GNT (11735810_at) / RFU PRB3 (11715151_x_at) / Fold change /veh PRB3 (11715151_x_at) / RFU TUBB4B (11761932_at) / Fold change /veh TUBB4B (11761932_at) / RFU CAPN14 (11732068_a_at) / Fold change /veh CAPN14 (11732068_a_at) / RFU TMCC2 (11721928_a_at) / Fold change /veh TMCC2 (11721928_a_at) / RFU IRGQ (11745062_a_at) / Fold change /veh IRGQ (11745062_a_at) / RFU FAM174B (11720279_a_at) / Fold change /veh FAM174B (11720279_a_at) / RFU TMPRSS4 (11748680_a_at) / Fold change /veh TMPRSS4 (11748680_a_at) / RFU FAM212B (11763350_a_at) / Fold change /veh FAM212B (11763350_a_at) / RFU PLEKHG5 (11743358_a_at) / Fold change /veh PLEKHG5 (11743358_a_at) / RFU ZSCAN30 (11745921_a_at) / Fold change /veh ZSCAN30 (11745921_a_at) / RFU CMKLR1 (11741424_a_at) / Fold change /veh CMKLR1 (11741424_a_at) / RFU LOC101060620 /// MAPK8IP1 (11723275_at) / Fold change /veh LOC101060620 /// MAPK8IP1 (11723275_at) / RFU SPTSSB (11747773_x_at) / Fold change /veh SPTSSB (11747773_x_at) / RFU PRSS12 (11739890_at) / Fold change /veh PRSS12 (11739890_at) / RFU BIN1 (11741810_x_at) / Fold change /veh BIN1 (11741810_x_at) / RFU WNT11 (11732464_a_at) / Fold change /veh WNT11 (11732464_a_at) / RFU C10orf10 (11716521_a_at) / Fold change /veh C10orf10 (11716521_a_at) / RFU C5orf56 (11738089_at) / Fold change /veh C5orf56 (11738089_at) / RFU CYB561 (11721691_x_at) / Fold change /veh CYB561 (11721691_x_at) / RFU ANKRD19P (11752326_a_at) / Fold change /veh ANKRD19P (11752326_a_at) / RFU OR2T12 /// OR2T33 /// OR2T8 (11738714_s_at) / Fold change /veh OR2T12 /// OR2T33 /// OR2T8 (11738714_s_at) / RFU VCAN (11748164_a_at) / Fold change /veh VCAN (11748164_a_at) / RFU JSRP1 (11732532_at) / Fold change /veh JSRP1 (11732532_at) / RFU KRTAP10-11 (11738290_x_at) / Fold change /veh KRTAP10-11 (11738290_x_at) / RFU MYO3A (11730013_a_at) / Fold change /veh MYO3A (11730013_a_at) / RFU EBF3 (11725865_a_at) / Fold change /veh EBF3 (11725865_a_at) / RFU CAMK2N1 (11719241_x_at) / Fold change /veh CAMK2N1 (11719241_x_at) / RFU C5orf56 (11738088_a_at) / Fold change /veh C5orf56 (11738088_a_at) / RFU OLFML3 (11715873_a_at) / Fold change /veh OLFML3 (11715873_a_at) / RFU LOC100653217 /// NTM (11731650_a_at) / Fold change /veh LOC100653217 /// NTM (11731650_a_at) / RFU MAPK11 (11762145_a_at) / Fold change /veh MAPK11 (11762145_a_at) / RFU FIZ1 (11724087_x_at) / Fold change /veh FIZ1 (11724087_x_at) / RFU OASL (11726364_x_at) / Fold change /veh OASL (11726364_x_at) / RFU SOX15 (11748057_x_at) / Fold change /veh SOX15 (11748057_x_at) / RFU CD79A (11719716_a_at) / Fold change /veh CD79A (11719716_a_at) / RFU HIST1H1D (11736915_at) / Fold change /veh HIST1H1D (11736915_at) / RFU CASKIN2 (11723855_a_at) / Fold change /veh CASKIN2 (11723855_a_at) / RFU LOC730098 (11760151_x_at) / Fold change /veh LOC730098 (11760151_x_at) / RFU OR4N2 (11742367_at) / Fold change /veh OR4N2 (11742367_at) / RFU PRRT2 (11749266_a_at) / Fold change /veh PRRT2 (11749266_a_at) / RFU SNX32 (11753110_a_at) / Fold change /veh SNX32 (11753110_a_at) / RFU CDHR5 (11726645_a_at) / Fold change /veh CDHR5 (11726645_a_at) / RFU RCAN1 (11760418_a_at) / Fold change /veh RCAN1 (11760418_a_at) / RFU FAM167A (11723789_a_at) / Fold change /veh FAM167A (11723789_a_at) / RFU FAM26E (11764081_at) / Fold change /veh FAM26E (11764081_at) / RFU ISYNA1 (11749810_s_at) / Fold change /veh ISYNA1 (11749810_s_at) / RFU ACY1 (11761880_at) / Fold change /veh ACY1 (11761880_at) / RFU 11764098_at / Fold change /veh 11764098_at / RFU SAMD14 (11745864_x_at) / Fold change /veh SAMD14 (11745864_x_at) / RFU NPB (11741838_a_at) / Fold change /veh NPB (11741838_a_at) / RFU TMPRSS6 (11731388_a_at) / Fold change /veh TMPRSS6 (11731388_a_at) / RFU KRTAP10-2 (11738614_at) / Fold change /veh KRTAP10-2 (11738614_at) / RFU ARHGAP8 /// PRR5-ARHGAP8 (11727945_x_at) / Fold change /veh ARHGAP8 /// PRR5-ARHGAP8 (11727945_x_at) / RFU KRTAP5-7 /// NADSYN1 (11734609_at) / Fold change /veh KRTAP5-7 /// NADSYN1 (11734609_at) / RFU RASL12 (11751679_a_at) / Fold change /veh RASL12 (11751679_a_at) / RFU CDKN2B (11736163_a_at) / Fold change /veh CDKN2B (11736163_a_at) / RFU PRF1 (11729649_at) / Fold change /veh PRF1 (11729649_at) / RFU, ZNF638 /// ZNF638-IT1 / Fold change vs veh, ZNF638 /// ZNF638-IT1 / RFU, PANK3 / Fold change vs veh, PANK3 / RFU, SH3YL1 / Fold change vs veh, SH3YL1 / RFU, ZEB2 / Fold change vs veh, ZEB2 / RFU, NRIP1 / Fold change vs veh, NRIP1 / RFU, PTTG1IP / Fold change vs veh, PTTG1IP / RFU, CAPN2 / Fold change vs veh, CAPN2 / RFU, MED14 / Fold change vs veh, MED14 / RFU, SNORA58 / Fold change vs veh, SNORA58 / RFU, C1orf63 / Fold change vs veh, C1orf63 / RFU, LRRFIP1 / Fold change vs veh, LRRFIP1 / RFU, NDUFAF7 / Fold change vs veh, NDUFAF7 / RFU, SLC12A2 / Fold change vs veh, SLC12A2 / RFU, IBTK / Fold change vs veh, IBTK / RFU, ESF1 / Fold change vs veh, ESF1 / Fold change vs veh, TMEM50B / RFU, TAOK1 / Fold change vs veh, TAOK1 / RFU, ACBD3 / Fold change vs veh, ACBD3 / RFU, TMA16 / Fold change vs veh, TMA16 / RFU, RWDD3 / Fold change vs veh, RWDD3 / RFU, BCAT1 / Fold change vs veh, BCAT1 / RFU, EDEM3 / Fold change vs veh, EDEM3 / RFU, TMEM33 / Fold change vs veh, TMEM33 / RFU, WDR75 / Fold change vs veh, WDR75 / RFU, AHCTF1 / Fold change vs veh, AHCTF1 / RFU, TFRC / Fold change vs veh, TFRC / RFU, ZDHHC17 / Fold change vs veh, ZDHHC17 / RFU, NOM1 / Fold change vs veh, NOM1 / RFU, ARL8B / Fold change vs veh, ARL8B / RFU, ZBTB11 / Fold change vs veh, ZBTB11 / RFU, TAMM41 / Fold change vs veh, TAMM41 / RFU, KIAA1704 /// LOC100996395 / Fold change vs veh, KIAA1704 /// LOC100996395 / RFU, ING1 / Fold change vs veh, ING1 / RFU, TRMT61B / Fold change vs veh, TRMT61B / RFU, FUBP3 / Fold change vs veh, FUBP3 / RFU, TP53 / Fold change vs veh, TP53 / RFU, TNKS2 / Fold change vs veh, TNKS2 / RFU, ZFP14 / Fold change vs veh, ZFP14 / RFU, ACTR2 / Fold change vs veh, ACTR2 / RFU, PPP3R1 / Fold change vs veh, PPP3R1 / RFU, PIK3R1 / Fold change vs veh, PIK3R1 / RFU, HNRNPA1 / Fold change vs veh, HNRNPA1 / RFU, RNF170 / Fold change vs veh, RNF170 / RFU, ZNF28 / Fold change vs veh, ZNF28 / RFU, RNGTT / Fold change vs veh, RNGTT / RFU, OGT / Fold change vs veh, OGT / RFU, BRD1 / Fold change vs veh, BRD1 / RFU, MARS / Fold change vs veh, MARS / RFU, ZNF655 / Fold change vs veh, ZNF655 / RFU, FAHD1 / Fold change vs veh, FAHD1 / RFU, BDP1 / Fold change vs veh, BDP1 / RFU, LRRCC1 / Fold change vs veh, LRRCC1 / RFU, ARID1A / Fold change vs veh, ARID1A / RFU, ZNF146 / Fold change vs veh, ZNF146 / RFU, ZNF330 / Fold change vs veh, ZNF330 / RFU, GPN3 / Fold change vs veh, GPN3 / RFU, C9orf123 / Fold change vs veh, C9orf123 / RFU, N4BP2L2 / Fold change vs veh, N4BP2L2 / RFU, ARFIP1 / Fold change vs veh, ARFIP1 / RFU, FAM179B / Fold change vs veh, FAM179B / RFU, BCL10 / Fold change vs veh, BCL10 / RFU, UHRF1BP1L / Fold change vs veh, UHRF1BP1L / RFU, BET1 / Fold change vs veh, BET1 / RFU, CNOT2 / Fold change vs veh, CNOT2 / RFU, ZNF268 / Fold change vs veh, ZNF268 / Fold change vs veh, ZNF507 / RFU, DGCR2 / Fold change vs veh, DGCR2 / RFU, WDSUB1 / Fold change vs veh, WDSUB1 / Fold change vs veh, HSP90B1 /// MIR3652 / RFU, ADSS / Fold change vs veh, ADSS / RFU, GK / Fold change vs veh, GK / RFU, ZNF148 / Fold change vs veh, ZNF148 / RFU, TAF9 / Fold change vs veh, TAF9 / RFU, SLC1A5 / Fold change vs veh, SLC1A5 / RFU, SLMO2 / Fold change vs veh, SLMO2 / RFU, ABCC4 / Fold change vs veh, ABCC4 / RFU, LOC101060439 /// RAP1B / Fold change vs veh, LOC101060439 /// RAP1B / RFU, RFX7 / Fold change vs veh, RFX7 / RFU, GTPBP10 / Fold change vs veh, GTPBP10 / RFU, CNEP1R1 / Fold change vs veh, CNEP1R1 / RFU, BIVM-ERCC5 /// ERCC5 / Fold change vs veh, BIVM-ERCC5 /// ERCC5 / RFU, ILF3 / Fold change vs veh, ILF3 / RFU 11762660_at / Fold change /veh 11762660_at / RFU VCAN (11757783_s_at) / Fold change /veh VCAN (11757783_s_at) / RFU DDX43 (11728927_at) / Fold change /veh DDX43 (11728927_at) / RFU KRT8 (11758188_x_at) / Fold change /veh KRT8 (11758188_x_at) / RFU NKD1 (11759106_at) / Fold change /veh NKD1 (11759106_at) / RFU SRD5A1 (11742802_a_at) / Fold change /veh SRD5A1 (11742802_a_at) / RFU TPSAB1 /// TPSB2 (11721975_s_at) / Fold change /veh TPSAB1 /// TPSB2 (11721975_s_at) / RFU GSTM3 (11746129_a_at) / Fold change /veh GSTM3 (11746129_a_at) / RFU IL23R (11737362_x_at) / Fold change /veh IL23R (11737362_x_at) / RFU TMEM51 (11727254_a_at) / Fold change /veh TMEM51 (11727254_a_at) / RFU PIWIL2 (11732686_x_at) / Fold change /veh PIWIL2 (11732686_x_at) / RFU ORM1 (11744905_x_at) / Fold change /veh ORM1 (11744905_x_at) / RFU CCDC152 (11743942_at) / Fold change /veh CCDC152 (11743942_at) / RFU ECM1 (11717891_a_at) / Fold change /veh ECM1 (11717891_a_at) / RFU IL23R (11748794_a_at) / Fold change /veh IL23R (11748794_a_at) / RFU TNFAIP8L3 (11732012_x_at) / Fold change /veh TNFAIP8L3 (11732012_x_at) / RFU MBOAT4 (11741988_at) / Fold change /veh MBOAT4 (11741988_at) / RFU 11764193_at / Fold change /veh 11764193_at / RFU TMEM53 (11763286_at) / Fold change /veh TMEM53 (11763286_at) / RFU MAGEB2 (11727129_at) / Fold change /veh MAGEB2 (11727129_at) / RFU TMEM200A (11744735_a_at) / Fold change /veh TMEM200A (11744735_a_at) / RFU CCDC152 (11751479_a_at) / Fold change /veh CCDC152 (11751479_a_at) / RFU FAM211A (11726209_a_at) / Fold change /veh FAM211A (11726209_a_at) / RFU RGS16 (11746705_a_at) / Fold change /veh RGS16 (11746705_a_at) / RFU VCAN (11755009_s_at) / Fold change /veh VCAN (11755009_s_at) / RFU RHOB (11743442_s_at) / Fold change /veh RHOB (11743442_s_at) / RFU RGS16 (11720943_a_at) / Fold change /veh RGS16 (11720943_a_at) / RFU RGS16 (11720944_at) / Fold change /veh RGS16 (11720944_at) / RFU, VPS4B / Fold change vs veh, VPS4B / RFU, CREB1 / Fold change vs veh, CREB1 / RFU, DNAJC13 / Fold change vs veh, DNAJC13 / RFU, GNAQ / Fold change vs veh, GNAQ / RFU, CDK5R1 / Fold change vs veh, CDK5R1 / RFU, ZRANB3 / Fold change vs veh, ZRANB3 / RFU, CUL4A / Fold change vs veh, CUL4A / RFU, CCNY / Fold change vs veh, CCNY / RFU, UFL1 / Fold change vs veh, UFL1 / RFU, COG3 / Fold change vs veh, COG3 / RFU, DIAPH2 / Fold change vs veh, DIAPH2 / RFU, SKA2 / Fold change vs veh, SKA2 / RFU, AFF3 / Fold change vs veh, AFF3 / RFU, LMF1 / Fold change vs veh, LMF1 / RFU, IPO11 / Fold change vs veh, IPO11 / RFU, DFFB / Fold change vs veh, DFFB / RFU, FOXP1 / Fold change vs veh, FOXP1 / RFU, CARD8 / Fold change vs veh, CARD8 / RFU, STRN3 / Fold change vs veh, STRN3 / RFU, ADK / Fold change vs veh, ADK / RFU, RASSF2 / Fold change vs veh, RASSF2 / RFU, WIPF1 / Fold change vs veh, WIPF1 / RFU, LARP1B / Fold change vs veh, LARP1B / RFU, RASA1 / Fold change vs veh, RASA1 / RFU, RB1 / Fold change vs veh, RB1 / RFU, PPFIA1 / Fold change vs veh, PPFIA1 / RFU, MAT2A / Fold change vs veh, MAT2A / RFU, CCT5 / Fold change vs veh, CCT5 / RFU, WDR92 / Fold change vs veh, WDR92 / RFU, CUX1 / Fold change vs veh, CUX1 / RFU, TTC7A / Fold change vs veh, TTC7A / RFU, TMEM135 / Fold change vs veh, TMEM135 / RFU, DEPTOR / Fold change vs veh, DEPTOR / RFU, CPM / Fold change vs veh, CPM / RFU, DNAJB6 / Fold change vs veh, DNAJB6 / RFU, CACNA2D3 / Fold change vs veh, CACNA2D3 / RFU, DTX4 / Fold change vs veh, DTX4 / RFU, TFCP2 / Fold change vs veh, TFCP2 / RFU, GMCL1 /// GMCL1P1 / Fold change vs veh, GMCL1 /// GMCL1P1 / RFU, AEBP2 / Fold change vs veh, AEBP2 / RFU, SNHG1 /// SNORD22 /// SNORD25 /// SNORD26 /// SNORD27 /// SNORD28 /// SNORD29 /// SNORD31 / Fold change vs veh, SNHG1 /// SNORD22 /// SNORD25 /// SNORD26 /// SNORD27 /// SNORD28 /// SNORD29 /// SNORD31 / Fold change (Aza/veh), C12orf56 (ProbeSet 11735607_a_at) / Fold change (ACY-1035/veh), C12orf56 (ProbeSet 11735607_a_at) / Fold change (Aza/veh), FGFR1OP (ProbeSet 11751329_s_at) / Fold change (ACY-1035/veh), FGFR1OP (ProbeSet 11751329_s_at) / Fold change (Aza/veh), VPS36 (ProbeSet 11739960_a_at) / Fold change (ACY-1035/veh), VPS36 (ProbeSet 11739960_a_at) / RFU SYPL1 (11715823_x_at) / Fold change /veh SYPL1 (11715823_x_at) / RFU IGFBP7 (11715501_s_at) / Fold change /veh IGFBP7 (11715501_s_at) / RFU REEP3 (11722064_at) / Fold change /veh REEP3 (11722064_at) / RFU IGLL1 (11728026_x_at) / Fold change /veh IGLL1 (11728026_x_at): dose or concentration left out as unconfirmed
# Conditions: ProbeSet 11717876_a_at; LIST D
structure (smiles),measurement,value
Nc1ncn([C@@H]2O[C@H](CO)[C@@H](O)[C@H]2O)c(=O)n1 [azacitidine],"RFU, PPFIA1",24.22 RFU
